According to the NIST ThermoML archive (doi:10.1021/je300312c):
Values joined by “and” are separate entries in the source; they are usually repeats but may differ in a detail not shown here. Equal entries are not always repeated. ± gives the expanded uncertainty stated by the source.

Tests used:
[1] = for vapor or sublimation pressure: Transpiration method
[2] = Molar enthalpy of transition or fusion; settings: Crystal; DSC

CCn1cnc2ccccc21 [1-ethyl-1H-benzimidazole]
[1], Liquid
Settings	vapor or sublimation pressure [kPa]
328.8 K	0.00273 ± 0.00011
331.8 K	0.00334 ± 0.00014
334.3 K	0.0041 ± 0.00017
336.7 K	0.00481 ± 0.0002
339.2 K	0.00591 ± 0.00025
341.7 K	0.00714 ± 0.0003
343.7 K	0.00826 ± 0.00034
346.7 K	0.01029 ± 0.00042
349.1 K	0.01206 ± 0.00049
351.7 K	0.01365 ± 0.00056
353.9 K	0.01678 ± 0.00069
356.7 K	0.01954 ± 0.00081
358.9 K	0.02439 ± 0.001
361.2 K	0.02801 ± 0.0011
363.9 K	0.03343 ± 0.0014
366.6 K	0.03948 ± 0.0016
368.9 K	0.04573 ± 0.0019
372.1 K	0.05679 ± 0.0023
375.1 K	0.06706 ± 0.0027

Cn1cnc2ccccc21 [1-methylbenzimidazole]
Settings	Molar enthalpy of transition or fusion [kcal/mol]
[2]	3.23 ± 0.0956

[1]
Settings	Normal melting temperature [°C]	vapor or sublimation pressure [kPa]
300.7 K, Crystal	–	0.0002 ± 2e-05
303.2 K, Crystal	–	0.00026 ± 2e-05
305.6 K, Crystal	–	0.00034 ± 2e-05
308.1 K, Crystal	–	0.00046 ± 2e-05
311 K, Crystal	–	0.00061 ± 3e-05
313.7 K, Crystal	–	0.00082 ± 4e-05
314.2 K, Crystal	–	0.00087 ± 4e-05
314.2 K, Liquid	–	0.00115 ± 5e-05
316.6 K, Liquid	–	0.00139 ± 6e-05
316.7 K, Crystal	–	0.00112 ± 5e-05
319 K, Liquid	–	0.00172 ± 7e-05
319.6 K, Crystal	–	0.00154 ± 7e-05
321.5 K, Liquid	–	0.00209 ± 9e-05
322.5 K, Crystal	–	0.00213 ± 9e-05
324.5 K, Crystal	–	0.00249 ± 0.0001
324.5 K, Liquid	–	0.00278 ± 0.00012
325.5 K, Crystal	–	0.0027 ± 0.00012
326.9 K, Crystal	–	0.00316 ± 0.00014
326.9 K, Liquid	–	0.00332 ± 0.00014
329.5 K, Liquid	–	0.00402 ± 0.00017
331.5 K, Liquid	–	0.0046 ± 0.0002
334.5 K, Liquid	–	0.00598 ± 0.00025
335.9 K, Liquid	–	0.00673 ± 0.00028
336.9 K, Liquid	–	0.00709 ± 0.00029
337.5 K, Liquid	–	0.00742 ± 0.00031
339.6 K, Liquid	–	0.00868 ± 0.00036
341.6 K, Liquid	–	0.01014 ± 0.00043
344.4 K, Liquid	–	0.01267 ± 0.00053
347.2 K, Liquid	–	0.0155 ± 0.00064
349.4 K, Liquid	–	0.01858 ± 0.00077
351.8 K, Liquid	–	0.02168 ± 0.00088
354.1 K, Liquid	–	0.02462 ± 0.0012
354.4 K, Liquid	–	0.0258 ± 0.0013
356.5 K, Liquid	–	0.029 ± 0.0012
358.9 K, Liquid	–	0.03371 ± 0.0014
361.3 K, Liquid	–	0.0389 ± 0.0016
364 K, Liquid	–	0.04752 ± 0.0019
366.8 K, Liquid	–	0.0558 ± 0.0023
368.1 K, Liquid	–	0.06162 ± 0.0025
369.4 K, Liquid	–	0.06627 ± 0.0027
372.6 K, Liquid	–	0.07877 ± 0.0032
374.5 K, Liquid	–	0.08885 ± 0.0036
376 K, Liquid	–	0.09738 ± 0.0039
Crystal, DTA	60.1 ± 0.4	–

CCCCCn1cnc2ccccc21 [1-pentyl-1H-benzimidazole]
[1], Liquid
Settings	vapor or sublimation pressure
324.7 K	0.00028 ± 2e-05 kPa
329.1 K	0.00041 ± 2e-05 kPa
332 K	0.00054 ± 3e-05 kPa
335.1 K	0.00073 ± 3e-05 kPa
338.3 K	0.0009 ± 4e-05 kPa
341.2 K	0.00118 ± 5e-05 kPa
342.2 K	0.00124 ± 6e-05 kPa
344 K	0.00158 ± 7e-05 kPa
347.3 K	0.00203 ± 8e-05 kPa
350.1 K	0.00245 ± 0.0001 kPa
350.3 K	0.00238 ± 0.0001 kPa
353.2 K	0.00303 ± 0.00013 kPa
353.3 K	0.00329 ± 0.00014 kPa
356.2 K	0.00402 ± 0.00023 kPa
356.6 K	0.00437 ± 0.00024 kPa
359.4 K	0.00534 ± 0.00022 kPa
361.7 K	0.00609 ± 0.00025 kPa and 0.0063 ± 0.00026 kPa
364.3 K	0.00768 ± 0.00032 kPa and 0.0074 ± 0.00031 kPa
366.7 K	0.00884 ± 0.00036 kPa
369.7 K	0.0109 ± 0.00044 kPa
372.8 K	0.0129 ± 0.00053 kPa
375.8 K	0.01595 ± 0.00065 kPa

CCCn1cnc2ccccc21 [1-propyl-1H-benzimidazole]
[1], Liquid
Settings	vapor or sublimation pressure [kPa]
326.7 K	0.00166 ± 7e-05
329.1 K	0.00202 ± 9e-05
331.7 K	0.00262 ± 0.00011
333.9 K	0.00298 ± 0.00014
334.3 K	0.00312 ± 0.00014
336.6 K	0.00377 ± 0.00016
339.2 K	0.0047 ± 0.0002
341.4 K	0.00546 ± 0.00023
344.2 K	0.00671 ± 0.00028
346.9 K	0.00797 ± 0.00033
349.3 K	0.00969 ± 0.00042
351.8 K	0.01262 ± 0.00052
354.3 K	0.01444 ± 0.00059
356.8 K	0.01719 ± 0.0007
359.3 K	0.01949 ± 0.00081
361.8 K	0.02422 ± 0.001
364.3 K	0.02965 ± 0.0012
366.6 K	0.03507 ± 0.0014
369.3 K	0.0417 ± 0.0017
372.4 K	0.05004 ± 0.002
375.9 K	0.06251 ± 0.0025
